Results published in patent US20110060009A1, “Hydroxamate-Based Inhibitors of Deacetylases” (NOVARTIS AG, priority 2009, published 2011).

Experiments:
[1] = biological target: T1, HDAC-1 (Homo sapiens, UniProt Q13547); assay: HDAC Inhibition Assay (purified GST-HDAC protein); type: biochemical
T1 construct: made in house; host or cells: Sf9 or Sf21 insect cells (baculovirus, donor vector pFB-GSTX3)
Excerpt: The baculovirus donor vector pFB-GSTX3 is used to generate a recombinant baculovirus that expresses the HDAC polypeptide. Transfer vectors containing the HDAC coding region are transfected into the DH10Bac cell line (GIBCO) and plated on selective agar plates. Colonies without insertion of the fusion sequence into the viral genome (carried by the bacteria) are blue. Single, white colonies are picked and viral DNAs (bacmid) are isolated from the bacteria by standard plasmid purification procedures. Sf9 cells or Sf21 (American Type Culture Collection) cells are then transfected in […] flasks with the viral DNA using Cellfectin reagent.
Virus-containing media is collected from the transfected cell culture and used for infection to increase its titer. Virus-containing media obtained after two rounds of infection is used for large-scale protein expression. For large-scale protein expression 100 cm^2 round tissue culture plates are seeded with 5×10^7 cells/plate and infected with 1 mL of virus-containing media (at an approximately MOI of 5). After 3 days, the cells are scraped off the plate and centrifuged at 500 rpm for 5 minutes. Cell pellets from 10-20, 100 cm^2 plates, are re-suspended in 50 mL of ice-cold lysis buffer (25 mM tris-HCl, pH 7.5, 2 mM EDTA, 1% NP-40, 1 mM DTT, 1 mM P MSF). The cells are stirred on ice for 15 minutes and then centrifuged at 5,000 rpms for 20 minutes.
The centrifuged cell lysate is loaded onto a 2 mL glutathione-sepharose column (Pharmacia) and is washed thrice with 10 mL of 25 mM tris-HCl, pH 7.5, 2 mM EDTA, 1 mM DTT, 200 mM NaCl. The GST-tagged proteins are then eluted by 10 applications (1 mL each) of 25 mM tris-HCl, pH 7.5, 10 mM reduced-glutathione, 100 mM NaCl, 1 mM DTT, 10% glycerol and stored at −70° C.
HDAC assays with purified GST-HDAC protein are carried out in a final volume of 30 μL containing 15 ng of GST-HDAC protein, 20 mM tris-HCl, pH 7.5, 1 mM MnCl2, 10 mM MgCl2, 1 mM DTT, 3 μg/mL poly(Glu,Tyr) 4:1, 1% DMSO, 2.0 μM ATP (γ-[^33P]-ATP 0.1 μCi). The activity is assayed in the presence or absence of inhibitors. The assay is carried out in 96-well plates at ambient temperature for 15 minutes under conditions described below and terminated by the addition of 20 μL of 125 mM EDTA. Subsequently, 40 μL of the reaction mixture are transferred onto EMMOBILON-PVDF membrane (Millipore) previously soaked for 5 minutes with methanol, rinsed with water, then soaked for 5 minutes with 0.5% H3PO4 and mounted on vacuum manifold with disconnected vacuum source. After spotting all samples, a vacuum is connected and each well-rinsed with 200 μL 0.5% H3PO4. Membranes are removed and washed four times on a shaker with 1.0% H3PO4, once with ethanol. Membranes are counted after drying at ambient temperature, mounting in Packard TopCount 96-well frame, and addition of 10 μL/well of MICROSCINT™ (Packard). IC50 values are calculated by linear regression analysis of the percentage inhibition of each compound in duplicate, at 4 concentrations (usually 0.01, 0.1, 1 and 10 μM).
• Input: 3×4 μL stopped assay on IMMOBILON membrane, not washed • Background (3 wells): assay with H2O instead of enzyme • Positive control (4 wells): 3% DMSO instead of compound • Bath control (1 well): no reaction mix
IC50 values are calculated by logarithmic regression analysis of the percentage inhibition of each compound at 4 concentrations (usually 3- or 10-fold dilution series starting at 10 μM). In each experiment, the actual inhibition by reference compound is used for normalization of IC50 values to the basis of an average value of the reference inhibitor:
Normalized IC50=measured IC50 average ref. IC50/measured ref. IC50

[2] = tested on: HCT116; assay: HCT116 IC50 (Table 2, no method described); type: cell-based; settings: Homo sapiens, HCT-116

T1 sequence (Q13547 whole entry, species assumed): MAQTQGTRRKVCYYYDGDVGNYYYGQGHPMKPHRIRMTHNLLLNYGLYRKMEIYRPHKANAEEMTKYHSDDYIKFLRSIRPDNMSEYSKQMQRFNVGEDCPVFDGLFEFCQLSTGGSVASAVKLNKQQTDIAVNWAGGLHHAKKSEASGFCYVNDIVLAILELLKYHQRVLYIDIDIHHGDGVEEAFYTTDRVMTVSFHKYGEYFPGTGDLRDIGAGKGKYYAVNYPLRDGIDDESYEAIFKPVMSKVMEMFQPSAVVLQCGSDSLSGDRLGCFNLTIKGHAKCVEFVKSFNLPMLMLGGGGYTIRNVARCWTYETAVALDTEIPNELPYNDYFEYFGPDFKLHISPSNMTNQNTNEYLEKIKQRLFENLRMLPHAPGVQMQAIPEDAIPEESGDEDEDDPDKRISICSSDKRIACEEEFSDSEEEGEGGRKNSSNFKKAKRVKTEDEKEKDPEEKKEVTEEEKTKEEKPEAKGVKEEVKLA

| Structure (SMILES) | IC50 [1] [nM] | IC50 [2] [nM] |
| --- | --- | --- |
| Cc1[nH]c2ccccc2c1C[C@H]1CCCN1Cc1ccc(/C=C/C(=O)NO)cc1F [Cpd 10, (E)-3-{3-Fluoro-4-[(R)-2-(2-methyl-1H-indol-3-ylmethyl)-pyrrolidin-1-ylmethyl]-phenyl}-N-hydroxy-acrylamide] | 0.7 | 0.6 |
| Cc1[nH]c2ccccc2c1C[C@H]1CCCN1[C@@H](C)c1ccc(/C=C/C(=O)NO)cc1 [Cpd 14, (E)-N-Hydroxy-3-(4-{(S)-1-[(R)-2-(2-methyl-1H-indol-3-ylmethyl)-pyrrolidin-1-yl]-ethyl}-phenyl)-acrylamide] | 1.3 | 2.4 |
| Cc1[nH]c2ccccc2c1C[C@H]1CCCN1[C@H](C)c1ccc(/C=C/C(=O)NO)cc1 [Cpd 15, (E)-N-Hydroxy-3-(4-{(R)-1-[(R)-2-(2-methyl-1H-indol-3-ylmethyl)-pyrrolidin-1-yl]-ethyl}-phenyl)-acrylamide] | 1 | 3 |
| O=C(/C=C/c1ccc(CN2CCC[C@H]2C(=O)N2CCc3ccccc32)cc1)NO [Cpd 18, (E)-3-{4-[(S)-2-(2,3-Dihydro-indole-1-carbonyl)-pyrrolidin-1-ylmethyl]-phenyl}-N-hydroxy-acrylamide] | 350 | 7000 |
| Cc1[nH]c2ccccc2c1C[C@H]1C[C@@H](O)CN1Cc1ccc(/C=C/C(=O)NO)cc1 [Cpd 20, (E)-N-Hydroxy-3-{4-[(2S,4R)-4-hydroxy-2-(2-methyl-1H-indol-3-ylmethyl)-pyrrolidin-1-ylmethyl]-phenyl}-acrylamide] | 0.6 | 1 |
| O=C(/C=C/c1ccc(CN2C[C@@H](O)C[C@@H]2Cc2c[nH]c3ccccc23)cc1)NO [Cpd 22, (E)-N-Hydroxy-3-{4-[(2S,4S)-4-hydroxy-2-(1H-indol-3-ylmethyl)-pyrrolidin-1-ylmethyl]-phenyl}-acrylamide] | 0.45 | 4 |
| CO[C@@H]1C[C@H](Cc2c(C)[nH]c3ccccc23)N(Cc2ccc(/C=C/C(=O)NO)cc2)C1 [Cpd 24, (E)-N-Hydroxy-3-{4-[(2S,4R)-4-methoxy-2-(2-methyl-1H-indol-3-ylmethyl)-pyrrolidin-1-ylmethyl]-phenyl}-acrylamide] | 1.2 | 0.5 |
| CO[C@H]1C[C@H](Cc2c(C)[nH]c3ccccc23)N(Cc2ccc(/C=C/C(=O)NO)cc2)C1 [Cpd 25, (E)-N-Hydroxy-3-{4-[(2S,4S)-4-methoxy-2-(2-methyl-1H-indol-3-ylmethyl)-pyrrolidin-1-ylmethyl]-phenyl}-acrylamide] | 1.2 | 0.4 |
| O=C(/C=C/c1ccc(CN2CCC[C@@H]2Cn2cccn2)cc1)NO [Cpd 49, (E)-N-Hydroxy-3-[4-((R)-2-pyrazol-1-ylmethyl-pyrrolidin-1-ylmethyl)-phenyl]-acrylamide] | 15 | 26 |
| Cc1cc(C)n(C[C@H]2CCCN2Cc2ccc(/C=C/C(=O)NO)cc2)n1 [Cpd 50, (E)-3-{4-[(R)-2-(3,5-Dimethyl-pyrazol-1-ylmethyl)-pyrrolidin-1-ylmethyl]-phenyl}-N-hydroxy-acrylamide] | 3 | 4 |
| O=C(/C=C/c1ccc(CN2CCC[C@@H]2Cn2nc(C(F)(F)F)cc2C(F)(F)F)cc1)NO [Cpd 51, (E)-3-{4-[(R)-2-(3,5-Bis-trifluoromethyl-pyrazol-1-ylmethyl)-pyrrolidin-1-ylmethyl]-phenyl}-N-hydroxy-acrylamide] | 39 | 31 |
| O=C(/C=C/c1ccc(CN2C[C@H](O)C[C@@H]2Cn2nc(C(F)(F)F)cc2C(F)(F)F)cc1)NO [Cpd 52, (E)-3-{4-[(2R,4R)-2-(3,5-Bis-trifluoromethyl-pyrazol-1-ylmethyl)-4-hydroxy-pyrrolidin-1-ylmethyl]-phenyl}-N-hydroxy-acrylamide] | 37 | 52 |

More lines, in order of falling IC50 [1], values ahead:

| IC50 [1] [nM] | IC50 [2] [nM] | Structure (SMILES) |
| --- | --- | --- |
| 210 | 950 | O=C(/C=C/c1ccc(CN2CCC[C@@H]2C(=O)N2CCc3ccccc32)cc1)NO [Cpd 17, (E)-3-{4-[(R)-2-(2,3-Dihydro-indole-1-carbonyl)-pyrrolidin-1-ylmethyl]-phenyl}-N-hydroxy-acrylamide] |
| 56 | 560 | O=C(/C=C/c1ccc(CN2CCC[C@H]2C(=O)c2c[nH]c3ccccc23)cc1)NO [Cpd 11, (E)-N-Hydroxy-3-{4-[(S)-2-(1H-indole-3-carbonyl)-pyrrolidin-1-ylmethyl]-phenyl}-acrylamide] |
| 38 | 520 | O=C(/C=C/c1ccc(CN2CCC[C@@H]2C(=O)c2c[nH]c3ccccc23)cc1)NO [Cpd 12, (E)-N-Hydroxy-3-{4-[(R)-2-(1H-indole-3-carbonyl)-pyrrolidin-1-ylmethyl]-phenyl}-acrylamide] |
| 36 | 100 | O=C(/C=C/c1ccc(CN2CCC[C@H]2CN2CCc3ccccc32)cc1)NO [Cpd 19, (E)-3-{4-[(S)-2-(2,3-Dihydro-indol-1-ylmethyl)-pyrrolidin-1-ylmethyl]-phenyl}-N-hydroxy-acrylamide] |
| 2 | 16 | Cc1nn(C)c(C)c1C[C@H]1C[C@H](O)CN1Cc1ccc(/C=C/C(=O)NO)cc1 [Cpd 31, (E)-N-Hydroxy-3-{4-[(2S,4S)-4-hydroxy-2-(1,3,5-trimethyl-1H-pyrazol-4-ylmethyl)-pyrrolidin-1-ylmethyl]-phenyl}-acrylamide] |
| 1.7 | 8 | O=C(/C=C/c1ccc(CN2C[C@H](O)C[C@@H]2Cc2c[nH]c3ccccc23)cc1)NO [Cpd 23, (E)-N-Hydroxy-3-{4-[(2S,4R)-4-hydroxy-2-(1H-indol-3-ylmethyl)-pyrrolidin-1-ylmethyl]-phenyl}-acrylamide] |
| 0.7 | 1 | Cc1[nH]c2ccccc2c1C[C@H]1C[C@H](O)CN1Cc1ccc(/C=C/C(=O)NO)cc1 [Cpd 21, (E)-N-Hydroxy-3-{4-[(2S,4S)-4-hydroxy-2-(2-methyl-1H-indol-3-ylmethyl)-pyrrolidin-l-ylmethyl]-phenyl}-acrylamide] |
